Data published in patent US20210361771A1, “TERPENE COUPLING CONJUGATE” (LABORATOIRES ERIGER, priority 2020, published 2021).
Where “and” joins values, the source holds several entries; their conditions need not be identical. Equal values may be shown once.

Assays:
[1] = Stability of the nanoparticulate suspensions over time (DLS); format: physicochemical; conditions: suspension stored at 23° C.
Protocol: The mean particle sizes were measured using the “Dynamic Light Scattering” (DLS) method on a Malvern-Panalytical Nano-Sizer ZS® at 25° C. with a detection angle of 173° and a wavelength of 633 nm. The reported sizes are determined by the mean of three measurements. The measurements were carried out in polystyrene cuvettes.
A solution of conjugate in EtOH (2 mg for 0.5 mL) is added dropwise to vigorously stirred MiliQ water (1 mL). The formation of nanoparticles is observed in that the solution becomes partially cloudy. The suspension that is thus obtained is transferred to a flask and the EtOH is evaporated on a rotary evaporator (200 mbar for 5 min, then 130 mbar for 1 min at 40° C. and at 50 revolutions per minute).
The residual suspension is transferred to a vial and stored at 23° C.
The samples are prepared as follows: 40 μL of the residual suspension is dissolved in 500 μL of MiliQ H2O.
The stability of the suspensions was measured over time and the results are summarized in Tables 2 and 3 and in the graph of FIG. 1 and in the graph of FIG. 2.

[2] = Influence of phytolization on the stability of retinol, HPLC monitoring; format: physicochemical; conditions: for A (mU), HPLC area, single measurement: 6 mg/L in H2O/iPrOH 1:1, 21° C., ambient light; for A (mU), HPLC area, Average: average of two measurements
Protocol: The HPLC analyzes were carried out with an “Ultimate 3000 system” chain, Dionex®, France on a C18 “Vintage series KR C18—5 μm-150×4.6 mm (Interchim®) column. The samples were detected by UV absorption at λ=325 nm.
Vitamin A (retinol) is known to be sensitive to oxygen and UV radiation. The phytolization process allows retinol to be stabilized.
The solutions of retinol and conjugate 9 in nanoparticulate form (6 mg/L in an H2O/iPrOH 1:1 mixture) were stored at 21° C. in ambient light and analyzed by HPLC over time (24 and 48 h).
The variation in the area of the compounds over time is shown over time (average of two measurements)—see Table 5 and the graph of FIG. 3.

Molecule	d (nm) ([1]; Time 1 h)	d (nm) ([1]; Time 24 h)	d (nm) ([1]; Time 168 h)	d (nm) ([1]; Time 196 h)	Breakdown rate of free retinol compared with conjugate 9 ([2]; free form vs nanoparticulate conjugate, 48 h)	Variation of areas ([2]; t0)	A (mU), HPLC area, single measurement ([2]; t0)	A (mU), HPLC area, Average ([2]; t0)	A (mU), HPLC area, single measurement ([2]; t24 h)	A (mU), HPLC area, Average ([2]; t24 h)	Variation of areas ([2]; t24 h vs t0)	A (mU), HPLC area, single measurement ([2]; t48 h)	A (mU), HPLC area, Average ([2]; t48 h)	Variation of areas ([2]; t48 h vs t0)
Phytyl Diclofenate [Conjugate 4]	270.0 nm	369.7 nm	502.4 nm	436.8 nm										
CC1=C(/C=C/C(C)=C/C=C/C(C)=C/CO)C(C)(C)CCC1 [Retinol, retinol]					twice as quickly	0.0000	0.0502 mU and 0.0694 mU	0.0598 mU	0.0354 mU and 0.0360 mU	0.0357 mU	0.4030	0.0218 mU and 0.0273 mU	0.0246 mU	0.5895
C/C(=C\COC(=O)CCC(=O)OC1CCC(C(C)(C)C)CC1)CCC[C@H](C)CCC[C@H](C)CCCC(C)C (mixture of isomers) [Conjugate 7, Phytyl (4-tert-butyl cyclohexyl) succinate]	256.2 nm	269.7 nm	271.2 nm	269.6 nm										
CC1=C(/C=C/C(C)=C/C=C/C(C)=C/COC(=O)CCC(=O)OC/C=C(\C)CCC[C@H](C)CCC[C@H](C)CCCC(C)C)C(C)(C)CCC1 [Conjugate 9, Phytyl Retinyl Succinate]	167.4 nm	165.2 nm	151.8 nm	131.3 nm		0.0000	4.1604 mU and 4.0495 mU	4.1050 mU	3.4609 mU and 3.3380 mU	3.3995 mU	0.1719	2.9536 mU and 2.9385 mU	2.9461 mU	0.2823
Phytyl Ibuprofenate [Conjugate 3]	132.9 nm	154.5 nm	156.6 nm	164.1 nm										
